Test results taken from US10980828B2, “Method of using cyclodextrin” (L&F Research LLC, priority 2012, dated 2021).

Tests used:
human podocytes [1] = test: Determination of cholesterol content in podocytes exposed to patient sera; format: cell-based; conditions: DKD+ treated podocytes, 5 mM CD pretreatment 1 hour
Method: Human podocyte culture. Human podocytes were cultured and differentiated as previously described and serum starved in 0.2% FBS prior to experiments. When patient sera were utilized, starved cells were exposed to 4% patient sera for 24 hours. For insulin treatment experiments, 100 nmol insulin was added to the culture medium for 15 minutes after exposure to patient sera. […] Determination of cholesterol content. Esterified cholesterol was determined as difference between total and free cholesterol using an enzymatic assay and normalized to cell protein content. The cellular content of lipid droplets was determined using Oil red O (ORO). Cells were fixed and permeabilized as described above, washed in PBS and in 60% isopropanol, followed by incubation in ORO (0.5% ORO in isopropanol, 1:3 diluted) for 15 min at room temperature and counterstaining with hematoxylin for 1 min. The fraction of ORO positive cells over two hundred consecutive cells was calculated by bright field microscopy.

human islets = test: Human islet perifusion: glucose stimulated insulin release; format: cell-based; conditions: human islets from four preparations, pretreated with 0.5 mM CD for one hour, vs untreated
Method: BTBR ob/ob mice treatment and analysis. BTBR ob/ob mice were purchased from Jackson Laboratories. Mice were injected subcutaneously with 4,000 mg/kg CD or saline as reported previously, three times per week for 5 months. Urine was collected, and body weight and glycemia (OneTouch) were determined weekly. Six mice per group were analyzed. All animal procedures were approved by the Institutional Animal Care and Use Committee (IACUC). After isotonic saline perfusion, the right kidney was removed for cholesterol content determination and mRNA extraction. One left kidney pole was embedded in OCT, a second pole fixed in 4% PFA and paraffin-embedded for histological analysis. Blood samples were analyzed for CBC, lipid panel, AST, ALT, Alkaline Phosphatase, GGT, and BUN in the Comparative Laboratory Core Facility, University of Miami. Serum creatinine was determined by tandem mass spectrometry at the UAB-UCSD O'Brien Core Center, University of Alabama at Birmingham, using the methods previously described. The urine albumin content was measured by ELISA (Bethyl Laboratories). Urinary creatinine was assessed by an assay based on the Jaffe method (Stanbio). Values are expressed as μg albumin/mg creatinine. Fasting plasma insulin was determined by ELISA (Mercodia, SW). […]

BTBR mice = test: Safety of chronic subcutaneous CD in BTBR mice (blood analysis at sacrifice); format: in vivo; conditions: at sacrifice, 4,000 mg/kg s.c. three times per week for 5 months
Method: (§1) BTBR ob/ob mice treatment and analysis. BTBR ob/ob mice were purchased from Jackson Laboratories. Mice were injected subcutaneously with 4,000 mg/kg CD or saline as reported previously, three times per week for 5 months. Urine was collected, and body weight and glycemia (OneTouch) were determined weekly. Six mice per group were analyzed. All animal procedures were approved by the Institutional Animal Care and Use Committee (IACUC). After isotonic saline perfusion, the right kidney was removed for cholesterol content determination and mRNA extraction. One left kidney pole was embedded in OCT, a second pole fixed in 4% PFA and paraffin-embedded for histological analysis. Blood samples were analyzed for CBC, lipid panel, AST, ALT, Alkaline Phosphatase, GGT, and BUN in the Comparative Laboratory Core Facility, University of Miami. Serum creatinine was determined by tandem mass spectrometry at the UAB-UCSD O'Brien Core Center, University of Alabama at Birmingham, using the methods previously described. The urine albumin content was measured by ELISA (Bethyl Laboratories). Urinary creatinine was assessed by an assay based on the Jaffe method (Stanbio). Values are expressed as μg albumin/mg creatinine. Fasting plasma insulin was determined by ELISA (Mercodia, SW). Intraperitoneal glucose tolerance tests (IPGTT) were performed 4 months after treatment; after 5-hr fasting, blood glucose was recorded at baseline and up to 180 minutes after a glucose bolus (1.5 g/kg). For insulin sensitivity, glycemia was monitored at baseline and up to 150 minutes after intraperitoneal injection of 4 mU/g of short acting insulin. Human islets from four different isolations were pretreated with 0.5 mM CD for one hour and perfused as described before to determine insulin release in response to glucose and KCl.
FIG. 3 is a table illustrating the safety of CD in 4-week old BTBR mice treated following subcutaneous administration of three weekly injections of hydroxypropyl-β-cyclodextrin (CD, 4,000 mg/kg body weight) for five months.

BTBR ob/ob mice [2] = test: BTBR ob/ob mice treatment: diabetic kidney disease readouts; format: in vivo
Method: as §1
Histology, assessment of mesangial expansion and glomerular surface area. Periodic acid-Shiff's (PAS) staining of 4 μm thick tissue sections was performed. Twenty glomeruli per section were analyzed for mesangial expansion by semiquantitative analysis (scale 0-4) performed by two blinded independent investigators. The glomerular surface was delineated in each encountered glomerulus and the mean surface area calculated as described.

human podocytes [3] = test: Human podocytes exposed to DKD+ patient sera: immunofluorescence staining (filipin, phospho-caveolin, F-actin, cell blebbing); format: cell-based
Method: We used a previously established cell-based assay in which differentiated human podocytes are exposed to 4% patient sera for 24 hours to identify new pathways and targets in DKD. […] Excessive cholesterol deposition has indeed been described in glomeruli of rodent models of T1D and T2D and may contribute to DKD development and progression.
(§2) Human podocyte culture. Human podocytes were cultured and differentiated as previously described and serum starved in 0.2% FBS prior to experiments. When patient sera were utilized, starved cells were exposed to 4% patient sera for 24 hours. For insulin treatment experiments, 100 nmol insulin was added to the culture medium for 15 minutes after exposure to patient sera.
Immunofluorescence staining. […] Fluorescence detection was performed using Alexa Fluor secondary antibodies (Invitrogen). For cholesterol determination, filipin (Sigma) staining was performed as described. F-actin was visualized by Rhodamine Phalloidin (Invitrogen). Two hundred consecutive cells per condition were studied. Slides were prepared with DAPI enriched mounting media (Vectashield) and analyzed by confocal microscopy.

BTBR ob/ob mice [4] = test: BTBR ob/ob mice treatment: body weight, glycemia, insulin, IPGTT, insulin sensitivity; format: in vivo
Method: as §1

ABCA1 [5] = test: ABCA1 immunofluorescence staining in pancreata of BTBR mice; format: in vivo
Description: IPGTT performed one week prior to sacrifice were improved in CD treated homozygous mice when compared to homozygous controls. As improvement was observed despite a similar insulin sensitivity test, we analyzed the effect of low dose CD on the function of four different preparations of human islet cells. […] To determine whether the beneficial effect of CD on islet cell function was associated with the modulation of ABCA1 expression in pancreatic islets, we performed immunofluorescence staining using a rabbit polyclonal ABCA1 antibody (gift from Dr. A. Mendez) and determined ABCA1 expression as mean fluorescence intensity per pancreata analyzed. […] As hemolytic anemia and liver toxicity have been described while using other cyclodextrin derivatives in rodents and humans, and because we administered high dose CD for a period of 5 months, we studied hemoglobin, aspartate aminotransferase (AST), alanine transaminase (ALT) and gamma-glutamyltransferase (GGT) at sacrifice.

human podocytes [6] = test: Apoptosis analysis (Caspase-3 colorimetric assay) in podocytes exposed to patient sera; format: cell-based; conditions: DKD+ treated podocytes, 5 mM CD pretreatment 1 hour
Method: as §2, with “sera. […] Apoptosis analysis. Apoptosis was assessed using the Caspase-3/CPP32 Colorimetric Assay kit (Biovision) according to the manufacturer's description. Caspase 3 activity was normalized to cell number and expressed as fold change to controls.” for “sera.”

ABCA1 [7] = test: ABCA1 mRNA expression in kidney cortex of BTBR ob/ob mice; format: in vivo; conditions: BTBR ob/ob mice, 4,000 mg/kg s.c. three times per week, 5 months
Method: Quantitative Real Time PCR (QRT-PCR). Podocyte RNA was extracted using the RNAeasy Mini Kit (Qiagen). Reverse transcription was performed using the high-capacity cDNA reverse transcriptase kit (Applied Biosystems) according to the manufacturer's protocols. QRT-PCR was performed in the StepOnePlus real-time PCR system (Applied Biosystems) using the PerfeCTa® SYBR® Green FastMix (Quanta Biosciences). Relative gene expression was determined as 2^-ΔCt, with ΔCt being the difference between the cycle threshold (Ct) value of the target gene and Gapdh. For semi-quantitative expression analysis, PCR was performed and analyzed by gel electrophoresis. Amplification product intensities were determined using ImageJ software (NIH), values were normalized and expressed as fold changes in gene expression over GAPDH. The following primers were used: hABCA1-F, […]; hABCA1-R, […]; hLDL-R-F, […]; hLDL-R-R, […]; hHMG-CoA-R-F, […]; hHMG-CoA-R-R, […]; hGAPDH-F, […]; hGAPDH-R, Hs_ABCA1-SG QuantiTect-Primer-Assay (Qiagen); mAbca1-F, […]; mAbca1-R, […].
BTBR ob/ob mice treatment and analysis. […] Urine was collected, and body weight and glycemia (OneTouch) were determined weekly. Six mice per group were analyzed. […] Blood samples were analyzed for CBC, lipid panel, AST, ALT, Alkaline Phosphatase, GGT, and BUN in the Comparative Laboratory Core Facility, University of Miami. […]

human podocytes [8] = test: Western blotting and luminex (insulin stimulated AKT phosphorylation, MyD88) in podocytes exposed to patient sera; format: cell-based; conditions: DKD+ treated podocytes, 5 mM CD pretreatment 1 hour
Method: Human podocyte culture. Human podocytes were cultured and differentiated as previously described and serum starved in 0.2% FBS prior to experiments. When patient sera were utilized, starved cells were exposed to 4% patient sera for 24 hours. For insulin treatment experiments, 100 nmol insulin was added to the culture medium for 15 minutes after exposure to patient sera. […] Western blotting and luminex. Cell lysate collection and Western blotting was performed as previously described. The following primary antibodies were used: rabbit-polyclonal-anti-MyD88 (Cell Signaling), rabbit-polyclonal-anti-phosphorylated ([…]) or anti-total-AKT (Cell Signaling), mouse-monoclonal-anti-rhoA (Santa Cruz), or mouse-monoclonal-anti-Gapdh (6C5, Calbiochem) antibody. Secondary Anti-mouse-IgG-HRP or and Anti-rabbit-IgG-HRP Conjugate (Promega) were used. Image acquisition was performed using the chemiluminescent imager SRX-101A (Konica Minolta medical imaging, USA) and band densitometry was analyzed using ImageJ software (NIH). Alternatively, phosphorylated/total AKT was quantified using luminex technology as previously reported.

[9] = intravenous infusions; cited from earlier work
[10] = serum at sacrifice, 4,000 mg/kg s.c. three times per week, 5 months
[11] = podocytes pretreated 1 hour with 5 mM CD, exposed to 4% DKD+ sera 24 hours
[12] = BTBR ob/ob mice, 4,000 mg/kg s.c. three times per week, after four months of treatment
[13] = sera collected at sacrifice, BTBR ob/ob mice, 4,000 mg/kg s.c. three times per week

CC(O)COC[C@H]1O[C@@H]2O[C@H]3[C@H](O)[C@@H](O)[C@@H](O[C@H]4[C@H](O)[C@@H](O)[C@@H](O[C@H]5[C@H](O)[C@@H](O)[C@@H](O[C@H]6[C@H](O)[C@@H](O)[C@@H](O[C@H]7[C@H](O)[C@@H](O)[C@@H](O[C@H]8[C@H](O)[C@@H](O)[C@@H](O[C@H]1[C@H](O)[C@H]2O)O[C@@H]8COCC(C)O)O[C@@H]7COCC(C)O)O[C@@H]6COCC(C)O)O[C@@H]5COCC(C)O)O[C@@H]4COCC(C)O)O[C@@H]3COCC(C)O (stereo partly drawn) [CD, hydroxypropyl-β-cyclodextrin]
accumulation of esterified cholesterol (human podocytes [1]): prevented the accumulation of total and esterified cholesterol
accumulation of total cholesterol (human podocytes [1]): prevented the accumulation of total and esterified cholesterol
glucose stimulated insulin release (human islets): significant improvement in glucose stimulated insulin release
alanine transaminase (ALT) (BTBR mice): No abnormalities
aspartate aminotransferase (AST) (BTBR mice): No abnormalities
gamma-glutamyltransferase (GGT) (BTBR mice): No abnormalities
hemoglobin (BTBR mice): No abnormalities
total cholesterol in the kidney cortex (BTBR ob/ob mice [2]; BTBR ob/ob mice, 4,000 mg/kg s.c. three times per week, 5 months): significant reduction of total cholesterol
albumin/creatinine ratios in morning spot urine (BTBR ob/ob mice [2]; BTBR ob/ob mice, 4,000 mg/kg s.c. three times per week, at 3 months, vs untreated, p<0.001): significant down-regulation
kidney weight (BTBR ob/ob mice [2]; BTBR ob/ob mice, 4,000 mg/kg s.c. three times per week, at sacrifice (5 months)): reduction of kidney weight
albumin/creatinine ratios in morning spot urine (BTBR ob/ob mice [2]; BTBR ob/ob mice, 4,000 mg/kg s.c. three times per week, until sacrifice (5 months)): decrease persisted until sacrifice
glomerular surface area (BTBR ob/ob mice [2]; PAS stained kidney sections, five months of treatment): without affecting the glomerular surface area
mesangial expansion (BTBR ob/ob mice [2]; PAS stained kidney sections, semiquantitative scale 0-4, five months of treatment): reduction of mesangial expansion
albumin excretion rates (BTBR ob/ob mice [2]; homozygous BTBR ob/ob mice, 4,000 mg/kg s.c. three times per week, up to 2 months after treatment initiation): no changes
Blood urea nitrogen (BUN) (BTBR ob/ob mice [2]; [10]): not significantly affected
serum creatinine (BTBR ob/ob mice [2]; [10]): not significantly affected
cell blebbing (human podocytes [3]; human podocytes exposed to sera of patients with diabetic kidney disease, CD): prevents
localization of phosphorylated caveolin to focal adhesion sites (human podocytes [3]; [11]): preserved the localization of phosphorylated caveolin to focal adhesion sites
number of filipin-positive cells (human podocytes [3]; [11]): reduced the number of filipin-positive cells
podocyte injury observed in vitro after exposure to patient sera (human podocytes [3]; pretreated 1 hour with 5 mM CD or 1 μM simvastatin): prevented podocyte injury
body weight (BTBR ob/ob mice [4]; [12]): reduction of body weight
random glycemia (BTBR ob/ob mice [4]; [12]): improvement of random glycemia
sensitivity to a single dose of short acting insulin (BTBR ob/ob mice [4]; BTBR ob/ob mice, insulin 4 mU/g intraperitoneal): did not affect the sensitivity
IPGTT (glucose tolerance) (BTBR ob/ob mice [4]; CD treated homozygous mice vs homozygous controls, one week prior to sacrifice, glucose bolus 1.5 g/kg): improved
fasting plasma glucose (BTBR ob/ob mice [4]; [13]): significant improvement
fasting plasma insulin (BTBR ob/ob mice [4]; [13]): significant improvement
ABCA1 expression in pancreata (mean fluorescence intensity) (ABCA1 [5]; heterozygous BTBR ob/+ mice, p<0.01): significantly increased ABCA1 expression
ABCA1 expression in pancreata (mean fluorescence intensity) (ABCA1 [5]; homozygous BTBR ob/ob mice, p<0.001): significantly increased ABCA1 expression
DKD+ induced apoptosis (cleaved Caspase 3) (human podocytes [6]): prevented DKD+ induced apoptosis
ABCA1 mRNA expression in the kidney cortex (ABCA1 [7]): did not affect
DKD+ induced MyD88 expression (human podocytes [8]): prevented
DKD+ induced insulin resistance (insulin stimulated AKT phosphorylation) (human podocytes [8]; 100 nmol insulin 15 minutes): prevented
crossing from the bloodstream into the brain [9]: does not cross from the bloodstream into the brain
